Paper PMC9238401, “Peptide Conjugates Derived from flg15, Pep13, and PIP1 That Are Active against Plant-Pathogenic Bacteria and Trigger Plant Defense Responses” (Applied and Environmental Microbiology, 2022)
Non-standard residues stand in square brackets, D forms with d. Residues, ends and D or L forms follow the SMILES beside them. *: point of attachment. Butyryl = CCCC(=O)*

Legend:
[1] = test system: Pseudomonas syringae pv. actinidiae Psa3700.1.1; assay: In vitro growth inhibition (MIC); format: cell-based; conditions: TSB, 25°C, 48 h, OD 600 nm (Bioscreen C), three replicates, experiment repeated twice; MIC given as range
Description: (§1) Peptide conjugates were tested for in vitro growth inhibition of the plant-pathogenic bacteria E. amylovora PMV6076, Xanthomonas arboricola pv. pruni CFBP5563, X. fragariae Xf349-9A, X. axonopodis pv. vesicatoria 2133-2, P. syringae pv. actinidiae Psa3700.1.1, and P. syringae pv. syringae EPS94 (Fig. 1, Table SA). The corresponding monomers (flg15, BP13, Pep13, PIP1, BP16, BP100, BP143, BP387, BP475, and KSL-W) were included for comparison.
(§2) The following plant-pathogenic bacterial strains were used: Erwinia amylovora PMV6076 (Institut National de la Recherche Agronomique, Angers, France), Pseudomonas syringae pv. syringae EPS94 (Institut de Tecnologia Agroalimentària, University of Girona, Spain), Xanthomonas axonopodis pv. vesicatoria 2133-2, X. axonopodis pv. vesicatoria Xav206 (Xav) (D. F. Ritchie, Department of Plant Pathology, North Carolina State University), Pseudomonas syringae pv. actinidiae Psa3700.1.1, Xanthomonas fragariae Xf349-9A (Instituto Valenciano de Investigaciones Agrarias, Valencia, Spain), and Xanthomonas arboricola pv. pruni CFBP5563 (Collection Française de Bactéries Associées aux Plantes, Angers, France). All bacteria except for X. fragariae were stored in Luria Bertani (LB) broth supplemented with glycerol (20%) and maintained at −80°C. For X. fragariae, medium B ([80]) was used instead of LB. E. amylovora, X. arboricola pv. pruni, P. syringae pv. syringae, and P. syringae pv. actinidiae were scraped from the agar medium after growing for 24 h at 25°C, and X. axonopodis pv. vesicatoria and X. fragariae, after growing for 48 h at 25°C. The cell material was suspended in sterile water to obtain a suspension of 10^8 CFU mL^−1.
(§3) Lyophilized peptides were solubilized in sterile Milli-Q water to a final concentration of 1 mM and filter-sterilized through a 0.22-μm pore filter. […] Then, 20 μL of each dilution were mixed in a microtiter plate well with 20 μL of the corresponding suspension of the bacterial indicator, 160 μL of Trypticase soy broth (TSB) (bioMérieux, France) to a total volume of 200 μL. Three replicates for each combination of strain, compound, and concentration were used. Microbial growth was determined by optical density measurement at 600 nm (Bioscreen C; Labsystem, Helsinki, Finland). Microplates were incubated at 25°C with 20 s of shaking before hourly absorbance measurement for 48 h. The experiment was repeated twice. The MIC was taken as the lowest compound concentration with no growth at the end of the experiment.

[2] = test system: Erwinia amylovora PMV6076; assay: In vitro growth inhibition (MIC); format: cell-based; conditions: TSB, 25°C, 48 h, OD 600 nm (Bioscreen C), three replicates, experiment repeated twice; MIC = lowest concentration with no growth, given as range
Description: as §1, §2, §3

[3] = test system: Xanthomonas arboricola pv. pruni CFBP5563; assay: In vitro growth inhibition (MIC); format: cell-based; conditions: TSB, 25°C, 48 h, OD 600 nm (Bioscreen C), three replicates, experiment repeated twice; MIC given as range
Description: as §1, §2, §3

[4] = test system: Pseudomonas syringae pv. syringae EPS94; assay: In vitro growth inhibition (MIC); format: cell-based; conditions: TSB, 25°C, 48 h, OD 600 nm (Bioscreen C), three replicates, experiment repeated twice; MIC given as range
Description: as §1, §2, §3

[5] = test system: Xanthomonas fragariae Xf349-9A; assay: In vitro growth inhibition (MIC); format: cell-based; conditions: TSB, 25°C, 48 h, OD 600 nm (Bioscreen C), three replicates, experiment repeated twice; MIC given as range
Description: as §1, §2, §3

[6] = test system: tobacco leaves; assay: Effect of peptide infiltration on tobacco leaves (phytotoxicity); format: in vivo
Description: Peptide conjugates were also assayed for their toxicity in tobacco leaves (Fig. 3, Table SC). After 48 h of infiltration, melittin caused a necrotic area of 0.70 and 2.17 cm in diameter at 50 and 250 μM, respectively. The monomers were not phytotoxic at those concentrations; all of them led to lesions of ≤1.2 cm at 250 μM. All peptide conjugates were also less phytotoxic than melittin, causing necrotic lesions between 0.26 and 1.67 cm in diameter at 250 μM. In particular, 15 of the 30 conjugates led to a necrotic area of <1 cm at this concentration. In general, sequences incorporating BP13 were among the most phytotoxic.
Peptide conjugates were evaluated for their effect on infiltration on tobacco leaves as described previously ([41]). Peptide solutions of 50, 150, and 250 μM were infiltrated (100 μL) into the mesophylls of fully expanded tobacco leaves. Infiltrations were carried out in a single leaf, and for each peptide and dose, at least three leaves randomly distributed in different plants were inoculated. Control infiltrations with water (negative control) or melittin (positive control) at the same molar concentration were performed. The appearance of symptoms on the leaves was followed for 48 h after infiltration and measured as lesion diameter.

[7] = test system: horse erythrocytes; conditions: TRIS buffer pH 7.2, 1 h, 37°C, absorbance 540 nm, relative to melittin 100 μM, ± confidence interval (α = 0.05)
Description: The toxicity of peptide conjugates to eukaryotic cells was determined as the ability to lyse erythrocytes (Table SB).
The hemolytic activity of the compounds was evaluated by determining hemoglobin release from erythrocyte suspensions of horse blood (5% vol/vol) (Oxoid) as previously described ([45]). Blood was centrifuged at 6000g for 5 min, washed three times with TRIS buffer (10 mM TRIS, 150 mM NaCl, pH 7.2) and diluted 10 times. Compounds were solubilized in TRIS buffer at 750, 500, 300, and 100 μM and mixed with horse erythrocytes (1:1 vol/vol). The mixture was incubated with continuous shaking for 1 h at 37°C. Then, the tubes were centrifuged at 3500g for 10 min, 80-μL aliquots of the supernatant were transferred to 100-well microplates (Bioscreen) and diluted with 80 μL water, and the absorbance measured at 540 nm (Bioscreen). […] The percentage of hemolysis (H) was calculated using the equation H = 100 × ([Op − Ob]/[Om − Ob]), where Op is the density for a given compound concentration, Ob is that for the buffer, and Om is that for the melittin positive control.

[8] = test system: Xanthomonas axonopodis pv. vesicatoria 2133-2; conditions: TSB, 25°C, 48 h, OD 600 nm (Bioscreen C), three replicates, experiment repeated twice; MIC given as range
Description: The corresponding monomers (flg15, BP13, Pep13, PIP1, BP16, BP100, BP143, BP387, BP475, and KSL-W) were included for comparison.
as §2, §3

[9] = HPLC retention time as indicator of relative hydrophobicity; format: physicochemical; conditions: chromatographic, Kromasil 100 C18 (4.6 mm × 40 mm, 3 μm), linear gradient 2 to 100% B over 12 min, 1 mL/min; A 0.1% aqueous TFA, B 0.1% TFA in CH3CN; used as indicator of relative hydrophobicity
Description: The parameters related to the structure of the peptide conjugates (sequence, charge, hydrophobic ratio [HR], and HPLC retention time), as well as their physicochemical properties (grand average hydropathicity [GRAVY] and hydrophobic moment [<μH>]) obtained from the online programs ProtParam (Expasy server) and HeliQuest are included in Table 1.
Peptides were analyzed under standard analytical HPLC conditions. Method A: peptides were analyzed with a Dionex liquid chromatography instrument composed of a UV/Vis Dionex UVD170U detector, a P680 Dionex pump, an ASI-100 Dionex automatic injector, and Chromeleon 6.60 software. Detection was performed at a wavelength of 220 nm. Solvent A was 0.1% aqueous trifluoroacetic acid (TFA), and solvent B was 0.1% TFA in CH3CN. Analyses were carried out with a Kromasil 100 C18 (4.6 mm × 40 mm, 3 μm) column with a linear gradient of 2 to 100% B over 7 min at a flow rate of 1 mL/min. Method B: peptides were analyzed with a 1260 Infinity II liquid chromatography instrument (Agilent Technologies) composed of a diode array detector HS, a quaternary pump VL, a 1260 vial sampler, and OpenLab CDS ChemStation software. Analyses were carried out with a Kromasil 100 C18 (4.6 mm × 40 mm, 3 μm) column with a linear gradient of 2 to 100% B over 12 min at a flow rate of 1 mL/min.

[10] = 100 μL infiltrated into mesophyll, lesion diameter 48 h after infiltration, at least three leaves, ± confidence interval (α = 0.05)

| Molecule | MIC, Psa [1] | MIC, Ea [2] | MIC, Xap [3] | MIC, Pss [4] | MIC, Xf [5] | Size of the lesions in infiltrated tobacco leaves at 50 μM [6, 10] | Size of the lesions in infiltrated tobacco leaves at 150 μM [6, 10] | Size of the lesions in infiltrated tobacco leaves at 250 μM [6, 10] | Percent hemolysis at 50 μM [7] | Percent hemolysis at 150 μM [7] | Percent hemolysis at 250 μM [7] | Percent hemolysis at 375 μM [7] | MIC, Xav [8] | tR (min), HPLC retention time (method B) [9] | Size of the lesions in infiltrated tobacco leaves at 50 μM ([6]; in vivo) | Size of the lesions in infiltrated tobacco leaves at 150 μM ([6]; in vivo) | Size of the lesions in infiltrated tobacco leaves at 250 μM ([6]; in vivo) |
| --- | --- | --- | --- | --- | --- | --- | --- | --- | --- | --- | --- | --- | --- | --- | --- | --- | --- |
| CCCC(=O)NCCCC[C@H](NC(=O)[C@H](CCCCN)NC(=O)[C@H](CC(C)C)NC(=O)[C@@H](NC(=O)[C@H](CCCCN)NC(=O)[C@H](CCCCN)NC(=O)[C@@H](Cc1ccccc1)NC(=O)[C@H](CC(C)C)NC(=O)[C@H](CCCCN)NC(=O)[C@H](CCCCN)NC(C)=O)[C@@H](C)CC)C(=O)N[C@@H](CC(C)C)C(=O)N[C@@H](Cc1ccc(O)cc1)C(=O)NCC(=O)N[C@H](C(=O)N[C@@H](Cc1c[nH]cn1)C(=O)N[C@H](C(=O)N[C@@H](Cc1c[nH]cn1)C(N)=O)[C@@H](C)O)[C@@H](C)CC [BP475-PIP1] (Ac-KKL[dF]KKILKK(Butyryl)LYGIHTH-NH2) | 1.6 to 3.1 µM | 3.1 to 6.2 µM | 0.8 to 1.6 µM | 6.2 to 12.5 µM | 1.6 to 3.1 µM | 0.47 ± 0.06 cm | 1.40 ± 0.00 cm | 1.67 ± 0.13 cm | 9 ± 1.0% | 18 ± 1.4% | 26 ± 2.8% | 39 ± 2.0% | 3.1 to 6.2 µM | 6.28 min | – | – | – |
| Ac-KKLFKKIK(COC3H7)KYL-RINSAKDDAAGLQIA-OH [BP387-flg15, peptide conjugate, lipopeptide BP387 at N-terminus, flg15 at C-terminus] | 6.2 to 12.5 µM | 25 to 50 µM | 1.6 to 3.1 µM | 3.1 to 6.2 µM | 6.2 to 12.5 µM | 0.23 ± 0.24 cm | 0.33 ± 0.35 cm | 0.93 ± 0.40 cm | 3 ± 0.3% | 5 ± 0.9% | 7 ± 0.2% | 9 ± 2.5% | 3.1 to 6.2 µM | 5.84 min | – | – | – |
| Ac-KKLfKKILKK(COC3H7)L-RINSAKDDAAGLQIA-OH [BP475-flg15, peptide conjugate, lipopeptide BP475 at N-terminus, flg15 at C-terminus] | 3.1 to 6.2 µM | 12.5 to 25 µM | 1.6 to 3.1 µM | 6.2 to 12.5 µM | 25 to 50 µM | 0.43 ± 0.13 cm | 1.20 ± 0.23 cm | 1.23 ± 0.28 cm | 1 ± 1.0% | 0 ± 0.2% | 1 ± 0.3% | 1 ± 0.3% | 3.1 to 6.2 µM | 6.03 min | – | – | – |
| H-FKLFKKILKVLKKVVFWVKFK-NH2 [BP13-KSLW] | 6.2 to 12.5 µM | > 50 µM | 1.6 to 3.1 µM | 12.5 to 25 µM | 1.6 to 3.1 µM | 0.56 ± 0.23 cm | 1.00 ± 0.25 cm | 0.92 ± 0.36 cm | 80 ± 11.2% | 90 ± 7.3% | 100 ± 8.4% | 99 ± 8.4% | 1.6 to 3.1 µM | 7.02 min | – | – | – |
| H-KKVVFWVKFKFKLFKKILKVL-NH2 [KSLW-BP13] | 1.6 to 3.1 µM | 25 to 50 µM | 1.6 to 3.1 µM | 25 to 50 µM | 1.6 to 3.1 µM | 0.52 ± 0.13 cm | 0.88 ± 0.15 cm | 1.07 ± 0.34 cm | 62 ± 8.2% | 65 ± 5.9% | 77 ± 12.9% | 82 ± 10.4% | 3.1 to 6.2 µM | 6.26 min | – | – | – |
| H-KKVVFWVKFKYGIHTH-NH2 [KSLW-PIP1] | > 50 µM | > 50 µM | 3.1 to 6.2 µM | > 50 µM | 3.1 to 6.2 µM | – | – | – | 8 ± 1.3% | 3 ± 2.1% | 3 ± 1.2% | 5 ± 4.9% | 3.1 to 6.2 µM | 4.83 min | 0.17 ± 0.17 cm | 0.53 ± 0.07 cm | 0.97 ± 0.28 cm |
